# Earlier results as cited in patent US20090181905A1, “CRYSTALLINE FORM OF 1' -(1-METHYLETHYL)-4' -[(2-FLUORO-4-METHOXYPHENYL)METHYL]-5' -METHYL-1H-PYRAZOL-3' -O-BETA-D-GLUCOPYRANOSIDE, A METHOD FOR ITS PREPARATION AND THE USE THEREOF FOR PREPARING MEDICAMENTS” (BOEHRINGER INGELHEIM INTERNATIONAL GMBH, priority 2006, published 2009).
# System: HbA1c
# Settings: metformin on its own, in the diabetic
smiles,measurement,value
CN(C)C(=N)N=C(N)N [metformin],average improvement in the HbA1c value,1.0-1.5%
